Laboratory results published in patent US20030166202A1, “P450 Monooxygenases of the cyp79 family” (priority 2000, published 2003).

Columns and labels:
CYP79A2 = target: T1, CYP79A2 (Arabidopsis thaliana, UniProt Q9FLC8); experiment: CYP79A2 activity in E. coli spheroplasts reconstituted with NADPH:cytochrome P450 oxidoreductase; settings: TLC or GC-MS detection
T1 sequence (Q9FLC8 7-529 limits assumed): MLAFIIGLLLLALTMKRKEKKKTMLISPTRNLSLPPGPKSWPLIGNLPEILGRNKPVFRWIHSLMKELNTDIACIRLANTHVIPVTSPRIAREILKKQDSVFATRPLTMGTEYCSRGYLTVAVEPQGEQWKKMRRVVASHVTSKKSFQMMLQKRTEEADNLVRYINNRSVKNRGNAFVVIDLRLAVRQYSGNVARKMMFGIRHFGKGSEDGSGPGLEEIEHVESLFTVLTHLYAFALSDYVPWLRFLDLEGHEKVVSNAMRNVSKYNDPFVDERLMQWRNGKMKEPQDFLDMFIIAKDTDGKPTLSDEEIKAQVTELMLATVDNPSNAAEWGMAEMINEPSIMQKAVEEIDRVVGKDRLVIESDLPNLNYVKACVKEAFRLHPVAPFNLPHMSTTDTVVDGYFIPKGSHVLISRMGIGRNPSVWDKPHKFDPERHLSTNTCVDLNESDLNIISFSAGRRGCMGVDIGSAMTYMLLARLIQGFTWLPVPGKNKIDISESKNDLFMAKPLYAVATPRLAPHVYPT

CYP79D2 = target: T2, CYP79D2 (Manihot esculenta, UniProt Q9M7B7); type: biochemical, cassava
T2 construct: made in house
T2 sequence (Q9M7B7 whole entry): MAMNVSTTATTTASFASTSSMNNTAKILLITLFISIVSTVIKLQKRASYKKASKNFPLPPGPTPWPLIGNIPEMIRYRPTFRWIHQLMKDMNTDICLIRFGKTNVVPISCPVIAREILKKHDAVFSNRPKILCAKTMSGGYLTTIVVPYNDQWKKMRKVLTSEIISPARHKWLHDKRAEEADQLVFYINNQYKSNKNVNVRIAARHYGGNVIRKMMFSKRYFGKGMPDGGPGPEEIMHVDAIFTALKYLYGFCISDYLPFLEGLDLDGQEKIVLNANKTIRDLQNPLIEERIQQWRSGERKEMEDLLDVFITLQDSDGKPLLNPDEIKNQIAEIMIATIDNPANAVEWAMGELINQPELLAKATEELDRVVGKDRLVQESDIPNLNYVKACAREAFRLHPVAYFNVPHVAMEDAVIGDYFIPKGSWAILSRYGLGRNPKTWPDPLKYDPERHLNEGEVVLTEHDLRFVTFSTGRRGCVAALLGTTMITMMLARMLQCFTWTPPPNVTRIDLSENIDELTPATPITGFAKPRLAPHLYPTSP
Protocol: Investigations into the substrate specificity of CYP79D1, CYP79D2, CYP79E1, CYP79E2, CYP79A2, CYP79B2, CYP79B5 and CYP79F1 are carried out in E. coli spheroplasts reconstituted with sorghum NADPH-cytochrome P450 oxidoreductase in the presence of high amounts of lipids. L-α-dioleyl phosphatidyl choline and L-α-dilauroyl phosphatidyl choline are preferred lipids for the reconstitution. […] Depending on the nature of the substrate, substrate specificity may also be determined using intact P. pastoris cells or intact E. coli cells.
The ability of a P450 monooxygenase to convert an aliphatic or aromatic amino acid or chain-elongated methionine homologue to the corresponding oxime can be tested in an assay (see also example 5) comprising
a) incubating a reaction mixture comprising the P450 monooxygenase of the present invention or spheroplasts of E.coli cells expressing said enzyme, the parent amino acid, NADPH, oxygen, NADPH-cytochrome P450 oxidoreductase and lipid at ambient temperature for a certain period of time which is between 2 min and 2 to 6 hours;
b) terminating the reaction for example by the addition of a denaturing compounds such as ethyl acetate; and
c) chemically identifying and quantifying the aldoxime produced.

CYP79B2 = target: T3, CYP79B2 (Arabidopsis thaliana, UniProt O81346); experiment: CYP79B2 activity in E. coli spheroplasts reconstituted with NADPH:cytochrome P450 reductase; settings: radiolabelled amino acid, TLC
T3 sequence (O81346 1-541): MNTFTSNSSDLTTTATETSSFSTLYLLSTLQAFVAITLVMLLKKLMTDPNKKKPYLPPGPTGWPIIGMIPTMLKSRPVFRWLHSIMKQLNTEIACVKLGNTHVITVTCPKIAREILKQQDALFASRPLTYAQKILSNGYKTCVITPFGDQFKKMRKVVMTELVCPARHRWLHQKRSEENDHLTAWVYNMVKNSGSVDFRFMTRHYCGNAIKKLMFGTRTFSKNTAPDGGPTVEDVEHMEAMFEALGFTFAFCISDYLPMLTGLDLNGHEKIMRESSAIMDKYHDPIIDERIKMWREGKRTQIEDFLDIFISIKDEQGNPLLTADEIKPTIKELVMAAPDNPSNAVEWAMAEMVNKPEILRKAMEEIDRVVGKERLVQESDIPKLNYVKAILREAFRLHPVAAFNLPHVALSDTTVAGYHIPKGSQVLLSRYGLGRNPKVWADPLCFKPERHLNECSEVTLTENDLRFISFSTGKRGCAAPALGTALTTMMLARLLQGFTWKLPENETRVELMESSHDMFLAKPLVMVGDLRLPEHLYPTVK
Protocol: The activity of CYP79B2 is measured by reconstituting spheroplasts from E. coli expressing CYP79B2 with purified NADPH:cytochrome P450 reductase from Sorghum bicolor (L.) Moench. […] The reaction is incubated at 34° C. for 30 minutes, extracted two times with ethyl acetate and the ethyl acetate phase is analyzed by TLC using toluen:ethyl acetate 5:1 as eluent. Radiolabelled bands are visualized on a Storm 840 phosphorimager (Molecular Dynamics) and quantified with ImageQuant analysis software (Molecular Dynamics). Substrate specificity is investigated by substituting the ^14C-labelled tryptophan with ^14C-labelled tyrosine or phenylalanine. GC-MS is employed to verify the structure of the compound produced from tryptophan by recombinant CYP79B2. A 450 μl reaction mixture as described above containing 2 mM unlabelled tryptophan is incubated at 34° C. for 2 hours. The reaction mixture is extracted twice with 300 μl CHCl3 and lyophilized until dryness. GC-MS is performed with an HP5890 Series II gas chromatograph coupled to a Jeol JMS-AX505W mass spectrometer. Splitless injection on an SGE column (BPX5, 25 mm×0.25 mm, 0.25 μm film thickness) and a head pressure of 100 kPa are used.
Single colonies are grown overnight at 37° C. in LB medium containing 100 μg/ml ampicillin. 1 ml of the overnight culture is used to inoculate 75 ml TB medium containing 100 μg/ml ampicillin, 75 μg/ml δ-aminolevulinic acid, 1 mM thiamine and 1 mM IPTG. The TB cultures are grown for 44 hours at 125 rpm and 28° C.

N[C@@H](Cc1ccc(O)cc1)C(=O)O [L-tyrosine]
production of the respective aldoxime by CYP79A2 (CYP79A2): does not result in production of detectable amounts of the respective aldoximes
conversion to the corresponding oxime by CYP79D2 (CYP79D2): Neither L-Leucine, L-phenylalanine nor L-tyrosine are metabolized
oxime production by CYP79B2 (CYP79B2): No oxime producing activity is detected
